Consider 20 compounds from patent publication US20210277003A1, “OGA INHIBITOR COMPOUNDS” (Janssen Pharmaceutica NV, priority 2018, published 2021).

Test [1] has as its target T1, recombinant human Meningioma Expressed Antigen 5 (MGEA5), also referred to as O-GlcNAcase (OGA) (Homo sapiens, UniProt O60502).
T1 construct: Full length OGA enzyme was purchased at OnGene (cat #TP322411); purchased OnGene (so in the source)
T1 sequence (O60502 1-916): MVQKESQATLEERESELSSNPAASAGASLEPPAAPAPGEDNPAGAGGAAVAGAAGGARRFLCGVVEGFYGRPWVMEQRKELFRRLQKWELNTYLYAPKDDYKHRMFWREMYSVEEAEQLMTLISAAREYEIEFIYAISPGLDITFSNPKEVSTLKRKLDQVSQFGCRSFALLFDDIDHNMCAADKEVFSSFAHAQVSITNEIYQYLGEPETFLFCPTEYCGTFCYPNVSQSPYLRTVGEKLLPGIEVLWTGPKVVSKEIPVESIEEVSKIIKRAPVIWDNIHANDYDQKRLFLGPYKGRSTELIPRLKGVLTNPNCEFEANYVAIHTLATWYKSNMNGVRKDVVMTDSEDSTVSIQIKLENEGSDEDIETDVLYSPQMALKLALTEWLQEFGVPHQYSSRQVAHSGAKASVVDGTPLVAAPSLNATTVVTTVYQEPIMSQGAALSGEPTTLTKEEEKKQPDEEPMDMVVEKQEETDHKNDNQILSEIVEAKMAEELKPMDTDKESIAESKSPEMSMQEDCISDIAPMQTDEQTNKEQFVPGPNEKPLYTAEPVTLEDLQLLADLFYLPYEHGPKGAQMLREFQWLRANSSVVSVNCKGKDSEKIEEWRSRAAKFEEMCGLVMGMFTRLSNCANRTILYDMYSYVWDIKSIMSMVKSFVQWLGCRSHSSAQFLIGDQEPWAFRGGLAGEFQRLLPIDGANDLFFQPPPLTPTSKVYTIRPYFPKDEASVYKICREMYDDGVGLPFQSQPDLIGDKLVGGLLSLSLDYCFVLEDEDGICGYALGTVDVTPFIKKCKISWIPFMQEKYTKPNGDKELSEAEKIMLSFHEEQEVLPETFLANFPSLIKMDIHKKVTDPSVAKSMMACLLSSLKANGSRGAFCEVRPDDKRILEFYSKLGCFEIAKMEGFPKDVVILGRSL
Description: OGA biochemical assay: inhibition of hydrolysis of fluorescein mono-ß-D-N-Acetyl-Glucosamine (FM-GlcNAc), fluorescence readout. Particulars: FM-GlcNAc substrate; for Emax: read-out: Enzymatic Emax (%); for IC50: read-out: Enzymatic hOGA, pIC50 (converted). The source says:
The assay is based on the inhibition of the hydrolysis of fluorescein mono-ß-D-N-Acetyl-Glucosamine (FM-GlcNAc) (Mariappa et al. 2015, Biochem J 470:255) by the recombinant human Meningioma Expressed Antigen 5 (MGEA5), also referred to as O-GlcNAcase (OGA). The hydrolysis FM-GlcNAc (Marker Gene technologies, cat #M1485) results in the formation of ß-D-N-glucosamineacetate and fluorescein. The fluorescence of the latter can be measured at excitation wavelength 485 nm and emission wavelength 538 nm. An increase in enzyme activity results in an increase in fluorescence signal. Full length OGA enzyme was purchased at OnGene (cat #TP322411). The enzyme was stored in 25 mM Tris.HCl, pH 7.3, 100 mM glycine, 10% glycerol at −20° C. Thiamet G and GlcNAcStatin were tested as reference compounds (Yuzwa et al. 2008 Nature Chemical Biology 4:483; Yuzwa et al. 2012 Nature Chemical Biology 8:393). The assay was performed in 200 mM Citrate/phosphate buffer supplemented with 0.005% Tween-20. 35.6 g Na2HPO4 2 H2O (Sigma, #C0759) were dissolved in 1 L water to obtain a 200 mM solution. 19.2 g citric acid (Merck, #1.06580) was dissolved in 1 L water to obtain a 100 mM solution. pH of the sodium phosphate solution was adjusted with the citric acid solution to 7.2. The buffer to stop the reaction consists of a 500 mM Carbonate buffer, pH 11.0. 734 mg FM-GlcNAc were dissolved in 5.48 mL DMSO to obtain a 250 mM solution and was stored at −20° C. OGA was used at a 2 nM concentration and FM-GlcNAc at a 100 uM final concentration. Dilutions were prepared in assay buffer. 50 nl of a compound dissolved in DMSO was dispensed on Black Proxiplate™ 384 Plus Assay plates (Perkin Elmer, #6008269) and 3 μl fl-OGA enzyme mix added subsequently. Plates were pre-incubated for 60 min at room temperature and then 2 μl FM-GlcNAc substrate mix added. […] Plates were briefly centrifuged for 1 min at 1000 rpm and incubate at room temperature for 6 h. To stop the reaction 5 μl STOP buffer were added and plates centrifuge again 1 min at 1000 rpm. Fluorescence was quantified in the Thermo Scientific Fluoroskan Ascent or the PerkinElmer EnVision with excitation wavelength 485 nm and emission wavelength 538 nm. For analysis a best-fit curve is fitted by a minimum sum of squares method. From this an IC50 value and Hill coefficient was obtained. High control (no inhibitor) and low control (saturating concentrations of standard inhibitor) were used to define the minimum and maximum values.

Test [2] has as its system OGA in HEK293 cells inducible for P301L mutant human Tau (isoform 2N4R). In words: OGA cellular assay: immunocytochemical detection of O-GlcNAcylated proteins (CTD110.6 antibody). The test is classed as cell-based. Conditions: 6 hours incubation; for Emax / EC50: Homo sapiens, HEK293, 6 h; for EC50: read-out: Cellular hOGA, pEC50 (converted). The method, then: HEK293 cells inducible for P301L mutant human Tau (isoform 2N4R) were established at Janssen. Thiamet-G was used for both plate validation (high control) and as reference compound (reference EC50 assay validation). OGA inhibition is evaluated through the immunocytochemical (ICC) detection of O-GlcNAcylated proteins by the use of a monoclonal antibody (CTD110.6; Cell Signaling, #9875) detecting 0-GlcNAcylated residues as previously described (Dorfmueller et al. 2010 Chemistry & biology, 17:1250). Inhibition of OGA will result in an increase of O-GlcNAcylated protein levels resulting in an increased signal in the experiment. Cell nuclei are stained with Hoechst to give a cell culture quality control and a rough estimate of immediate compounds toxicity, if any. ICC pictures are imaged with a Perkin Elmer Opera Phenix plate microscope and quantified with the provided software Perkin Elmer Harmony 4.1.
Cells were propagated in DMEM high Glucose (Sigma, #D5796) following standard procedures. 2 days before the cell assay cells are split, counted and seeded in Poly-D-Lysine (PDL) coated 96-wells (Greiner, #655946) plate at a cell density of 12,000 cells per cm^2 (4,000 cells per well) in 100p of Assay Medium (Low Glucose medium is used to reduce basal levels of GlcNAcylation) (Park et al. 2014 The Journal of biological chemistry 289:13519). At the day of compound test medium from assay plates was removed and replenished with 90 µl of fresh Assay Medium. 10p of compounds at a 10 fold final concentration were added to the wells. Plates were centrifuged shortly before incubation in the cell incubator for 6 hours. DMSO concentration was set to 0.2%. Medium is discarded by applying vacuum. For staining of cells medium was removed and cells washed once with 100 μl D-PBS (Sigma, #D8537). From next step onwards unless other stated assay volume was always 50p and incubation was performed without agitation and at room temperature. Cells were fixed in 50 μl of a 4% paraformaldehyde (PFA, Alpha aesar, #043368) PBS solution for 15 minutes at room temperature. […] Before analysis samples were washed 2 times manually for 5 minutes in ICC base buffer.
Imaging is performed using Perkin Elmer Phenix Opera using a water 20× objective and recording 9 fields per well. Intensity readout at 488 nm is used as a measure of O-GlcNAcylation level of total proteins in wells. To assess potential toxicity of compounds nuclei were counted using the Hoechst staining. IC50-values are calculated using parametric non-linear regression model fitting. As a maximum inhibition Thiamet G at a 200 uM concentration is present on each plate. In addition, a concentration response of Thiamet G is calculated on each plate.

Structures are written as SMILES.

As for `Cc1ccnc(C)c1Nc1nccc2c1ccn2CC1CCO1` (single isomer, unassigned) [Compound 25a], in test [1], the Emax turned out to be 102% and the IC50 was 5.89 nM. In test [2], the “Cellular hOGA; pEC50” value stood at 7.3. This compound also showed a maximal effect (Emax) in test [2] (maximum = Thiamet G 200 uM) of 92%.
Take `Cc1ccnc(C)c1Nc1nccc2c1ccn2CC1CCO1` (single isomer, unassigned) [Compound 25b]: in test [1], the “Enzymatic Emax (%)” value stood at 101% and the IC50 is 4.57 nM. Besides, the “Cellular hOGA; pEC50” value in test [2] stood at 7.63. Also, in test [2] (maximum = Thiamet G 200 uM), the “Cellular Emax (%)” value was 90%.
Turning to `Cc1cncc(C)c1Nc1nccc2c1ccn2CC1CC1(F)F` (centres unmarked) [Compound 1], in test [1], the Emax worked out at 102% and the IC50 is 151 nM. For the same compound, in test [2] (maximum = Thiamet G 200 uM), the Emax amounted to 56%. The EC50 in test [2] is 708 nM.
As for `CCCCn1ccc2c(Nc3c(C)cncc3Cl)nccc21` [Compound 5], in test [1], the “Enzymatic hOGA; pIC50” value was determined as 7.95 and the Emax is 101%. The compound further had an Emax in test [2] (maximum = Thiamet G 200 uM) of 67%. The EC50 in test [2] was 67.6 nM.
In the same order, the values of `CCCCn1ccc2c(Nc3c(C)ccnc3C)nccc21` [Compound 6] are 8.16, 102%, 89% and 50.1 nM.
For `FCCCCn1ccc2c(Nc3c(Cl)cccc3Cl)nccc21` [Compound 7] the same measures were 7.98, 103%, 84% and 214 nM.
In the case of `CCCCn1ccc2c(Nc3c(Cl)ccc4c3CCO4)nccc21` [Compound 8], in test [1], the “Enzymatic hOGA; pIC50” value turned out to be 8.11 and the Emax was 102%. In test [2] (maximum = Thiamet G 200 uM), the Emax came out at 87%. Moreover, in test [2], the EC50 is 110 nM.
In the same order, the values of `CCC(C)Cn1ccc2c(Nc3c(Cl)cccc3Cl)nccc21.Cl` (centres unmarked) [Compound 9] are 8.42, 105%, 85% and 30.2 nM.
Regarding `CCCCn1ccc2c(Nc3c(C)ccc4[nH]c(C)nc34)nccc21` [Compound 11], the “Enzymatic hOGA; pIC50” value in test [1] is 7.06. Moreover, the figures for the Emax in test [1] and in test [2] (maximum = Thiamet G 200 uM) were 100% and 80%, respectively. In addition, the EC50 in test [2] was 288 nM.
Take `CCCCn1ccc2c(Nc3c(C)ccc4[nH]nnc34)nccc21` [Compound 12]: in test [1], the “Enzymatic hOGA; pIC50” value was 7.31 and the maximal response (Emax) stood at 99%. The Emax in test [2] (maximum = Thiamet G 200 uM) is 64%. Also, the EC50 in test [2] was 562 nM.
For `CCCCn1ccc2c(Nc3c(C)ccc(C(=O)N4CCOCC4)c3C)nccc21` [Compound 13] the same measures were 8.49, 105%, 87% and 28.2 nM.
On to `CCCCn1ccc2c(Nc3c(Cl)ccc4c3ccn4C)nccc21` [Compound 14], for which, in test [1], the “Enzymatic hOGA; pIC50” value is listed as 8.54 and the maximal effect (Emax) came out at 103%. For the same compound, in test [2] (maximum = Thiamet G 200 uM), the maximal effect (Emax) came out at 80%. The EC50 in test [2] was 182 nM.
With `CCCCn1ccc2c(Nc3c(C)ccc4cccnc34)nccc21` [Compound 15], in test [1], the “Enzymatic hOGA; pIC50” value came to 7.18 and the Emax was determined as 101%. Also, the Emax in test [2] (maximum = Thiamet G 200 uM) came out at 71%. Further, the EC50 in test [2] was 562 nM.
For `CCC(C)Cn1ccc2c(Nc3c(C)ccnc3C)nccc21.Cl` (centres unmarked) [Compound 16] the same measures were 7.83, 101%, 85% and 32.4 nM.
`CCCCn1ccc2c(Nc3c(Cl)cnc4c3OCCO4)nccc21` [Compound 18]: in test [1], the “Enzymatic hOGA; pIC50” value was 7.46 and the Emax was found to be 102%. The same compound showed an Emax in test [2] (maximum = Thiamet G 200 uM) of 62%. Also, in test [2], the EC50 is 575 nM.
As to `CCCCn1ccc2c(Nc3c(C)cnnc3C(C)C)nccc21` [Compound 19], in test [1], the “Enzymatic hOGA; pIC50” value was 7.8 and the Emax is 102%. Besides, the Emax in test [2] (maximum = Thiamet G 200 uM) was found to be 94%. Moreover, in test [2], the EC50 was 83.2 nM.
Regarding `Cc1ccnc(C)c1Nc1nccc2c1ccn2CC(F)(F)C1CC1` [Compound 23], in test [1], the “Enzymatic hOGA; pIC50” value worked out at 8.84 and the Emax came to 102%. This compound displayed an Emax in test [2] (maximum = Thiamet G 200 uM) of 97%. In addition, the EC50 in test [2] was 2.95 nM.
As to `Cc1ccnc(C)c1Nc1nccc2c1ccn2CC1CCO1` (centres unmarked) [Compound 25], in test [1], the Emax amounted to 104% and the IC50 was 4.79 nM. This compound also yielded a maximum response (Emax) in test [2] (maximum = Thiamet G 200 uM) of 89%. The EC50 in test [2] is 38 nM.
For `Cc1ccnc(C)c1Nc1nccc2c1ccn2CCC(C)(C)C#N` [Compound 26] the same measures were 100%, 191 nM, 64% and 479 nM.
In the same order, the values of `CCC(F)(F)Cn1ccc2c(Nc3c(C)ccnc3C)nccc21` [Compound 27] are 104%, 2.24 nM, 112% and 7.59 nM.
